From US20090306083A1, “Use of Trifluoromethyl Substituted Benzamides in teh Treatment of Neurological Disorders” (Novartis AG, priority 2006, published 2009)

Molecular target: T1, EphA4 receptor (Mus musculus, UniProt Q03137)
T1 construct: The brains were removed and one half of each brain was weighed and homogenized; from tissue; host or cells: mouse brain (NMRI mice), homogenate
Assay: Proof of mechanism: EphA4 phosphorylation in vivo in mouse brain (EphA4 immunoprecipitation, phospho-tyrosine Western blot)
Parameters: species or system NMRI mice
Conditions: i.v. dose 10 mg/kg; sacrificed 25 minutes or 1 hour after dosing; brain homogenate
Description: Male NMRI mice were injected with relevant compounds at a dose of 10 mg/kg body weight and were sacrificed either 25 minutes or 1 hour following the dosing (0.25 h or 1 h shown in FIG. 4). The brains were removed and one half of each brain was weighed and homogenized in appropriate volume of lysis buffer for 30 seconds (10 seconds pulse and 10 seconds off—3 times). The homogenate was spun at 12,000 g for 30 minutes. Protein amounts were estimated for supernatants (using BCA) and equal amounts of protein for each condition were subjected to EphA4 immunoprecipitation followed by a phospho-tyrosine western blot. Four control animals were used and three experimental animals per time point were used for each of the compounds tested.

T1 sequence (Q03137 20-986): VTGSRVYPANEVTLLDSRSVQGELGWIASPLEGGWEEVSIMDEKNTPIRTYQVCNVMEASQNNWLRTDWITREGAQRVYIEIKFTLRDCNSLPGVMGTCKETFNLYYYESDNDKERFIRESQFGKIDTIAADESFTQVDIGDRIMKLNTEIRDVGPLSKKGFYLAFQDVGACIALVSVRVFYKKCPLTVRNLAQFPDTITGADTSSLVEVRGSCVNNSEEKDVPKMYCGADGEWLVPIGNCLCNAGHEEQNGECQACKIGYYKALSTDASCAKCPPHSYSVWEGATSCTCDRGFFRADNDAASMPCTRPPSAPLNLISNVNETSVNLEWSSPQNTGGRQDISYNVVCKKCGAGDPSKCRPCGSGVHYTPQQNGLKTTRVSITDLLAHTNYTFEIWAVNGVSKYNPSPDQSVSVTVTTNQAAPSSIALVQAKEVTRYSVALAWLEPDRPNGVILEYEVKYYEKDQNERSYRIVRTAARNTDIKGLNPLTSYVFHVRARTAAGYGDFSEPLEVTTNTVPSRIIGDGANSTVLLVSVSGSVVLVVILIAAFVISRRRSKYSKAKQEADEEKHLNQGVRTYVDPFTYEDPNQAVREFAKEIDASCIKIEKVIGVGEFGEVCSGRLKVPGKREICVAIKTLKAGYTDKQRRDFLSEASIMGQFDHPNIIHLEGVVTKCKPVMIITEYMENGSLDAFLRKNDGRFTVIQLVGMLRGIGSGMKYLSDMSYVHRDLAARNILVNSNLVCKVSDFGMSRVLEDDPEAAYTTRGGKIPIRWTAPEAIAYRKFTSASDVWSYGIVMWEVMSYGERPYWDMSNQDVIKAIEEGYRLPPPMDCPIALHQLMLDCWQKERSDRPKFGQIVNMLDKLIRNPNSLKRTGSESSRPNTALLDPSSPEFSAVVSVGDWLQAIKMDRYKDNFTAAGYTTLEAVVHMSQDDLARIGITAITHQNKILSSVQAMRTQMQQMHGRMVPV

Row | Compound | EphA4 phosphorylation in vivo in mouse brain
1 | Cc1ccc(C(=O)Nc2cccc(C(F)(F)F)c2)cc1-c1ccc2ccncc2c1 [Compound 3, 3-Isoquinolin-7-yl-4-methyl-N-(3-trifluoromethyl-phenyl)-benzamide] | block EphA4 phosphorylation in vivo in mouse brain

System: not given
Assay: not given
Conditions: not given

Row | Compound | melting point
2 | Cc1ccc(C(=O)Nc2cccc(C(F)(F)F)c2)cc1-c1ccc2ncsc2c1 [Compound 6, 3-Benzothiazol-6-yl-4-methyl-N-(3-trifluoromethyl-phenyl)-benzamide] | 102 to 104 °C
3 | Cc1ccc(NC(=O)c2cccc(C(F)(F)F)c2)cc1-c1ccc2scnc2c1 [Compound 9, N-(3-Benzothiazol-5-yl-4-methyl-phenyl)-3-trifluoromethyl-benzamide] | 90 to 93 °C

Further lines, results first:

Row | melting point | Compound
4 | 200 to 202 °C | Cc1ccc(C(=O)Nc2cccc(C(F)(F)F)c2)cc1-c1ccc2scnc2c1 [Compound 10, 3-Benzothiazol-5-yl-4-methyl-N-(3-trifluoromethylphenyl)benzamide]
5 | 270 to 272 °C | Cc1ccc(C(=O)Nc2cccc(C(F)(F)F)c2)cc1-c1ccc2cnncc2c1 [Compound 8, 4-Methyl-3-phthalazin-6-yl-N-(3-trifluoromethyl-phenyl)-benzamide]
6 | 94 to 96 °C | Cc1ccc(NC(=O)c2cccc(C(F)(F)F)c2)cc1-c1ccc2ncsc2c1 [Compound 5, N-(3-Benzothiazol-6-yl-4-methyl-phenyl)-3-trifluoromethyl-benzamide]
7 | 205 to 206 °C | Cc1ccc(NC(=O)c2cccc(C(F)(F)F)c2)cc1-c1ccc2cnncc2c1 [Compound 7, N-(4-Methyl-3-phthalazin-6-yl-phenyl)-3-trifluoromethyl-benzamide]
8 | 148 to 152 °C | Cc1ccc(NC(=O)c2cccc(C(F)(F)F)c2)cc1-c1ccc2ccncc2c1 [Compound 1, N-(3-Isoquinolin-7-yl-4-methyl-phenyl)-3-trifluoromethyl-benzamide]

System: astrocytes
Assay: Astrocyte scratch wound assay (in vitro assay for astrogliosis)
Format: cell-based, C57BL/6 mice
Conditions: cytokines (TGF-α, LIF, and IFN) plus 10 nM compound; serum free=1
Description: Assay Astrocytes are prepared from the cerebral cortex of neonatal C57BL/6 mice(P1-P2). Cells are maintained in Dulbecco's modified Eagle's medium with 10% FBS. 4-7 weeks old astrocytes are plated to confluence in 2 well chamber slides coated with poly-D-lysine for the scratch wound assay and serum starved. 48 hrs after serum starvation, the monolayer of astrocytes is scratched with sterile 200 μl tips and washed twice with PBS to get rid of cell debris. Conditioned medium (±cytokines) is added to the wounded astrocytes. The microscopic images of the scratch is captured at a magnification of 10× right after scratch and considered as time point 0.24 hrs, 48 hrs or 72 hrs after scratch, the same region of scratch is imaged and fixed with methanol containing 1 μg/ml of DAPI to monitor migration and proliferation of astrocytes.

Row | Compound | astrocyte migration induced by cytokines (relative area of cell migration compared to control)
9 | Cc1ccc(C(=O)Nc2cccc(C(F)(F)F)c2)cc1-c1ccc2ccncc2c1 [Compound 3, 3-Isoquinolin-7-yl-4-methyl-N-(3-trifluoromethyl-phenyl)-benzamide] | block astrocyte migration induced by cytokines
